Results: ChEMBL document CHEMBL1201862, “PubChem BioAssay data set” (2004)
Activity calls are given as the source filed them.

How the values were obtained:
[1] = biological target: Nuclear receptor subfamily 5 group A member 2 (Homo sapiens, UniProt O00482); assay type: functional, cell-based;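 further: HEK293T cells transfected with LRH-1 and a StAR promoter luciferase reporter; potency for inhibitors that lower LRH-1 driven reporter light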
[2] = nonselective StAR promoter luciferase inhibitors – cell-based, luminescence, luciferase reporter, counter-screen for LRH-1 inverse agonist project, dose response (AID 651969); assay type: functional
[3] = biological target: Steroidogenic factor 1 (Homo sapiens, UniProt Q13285); assay: Counterscreen for inverse agonists of the liver receptor homolog-1 (LRH-1; NR5A2): Luminescence-based cell-based high throughput dose response assay to identify inverse agonists of the Steroidogenic Factor 1 Nuclear Receptor (SF1; NR5A1).; assay type: functional
Chain of Steroidogenic factor 1 (Q13285 whole entry): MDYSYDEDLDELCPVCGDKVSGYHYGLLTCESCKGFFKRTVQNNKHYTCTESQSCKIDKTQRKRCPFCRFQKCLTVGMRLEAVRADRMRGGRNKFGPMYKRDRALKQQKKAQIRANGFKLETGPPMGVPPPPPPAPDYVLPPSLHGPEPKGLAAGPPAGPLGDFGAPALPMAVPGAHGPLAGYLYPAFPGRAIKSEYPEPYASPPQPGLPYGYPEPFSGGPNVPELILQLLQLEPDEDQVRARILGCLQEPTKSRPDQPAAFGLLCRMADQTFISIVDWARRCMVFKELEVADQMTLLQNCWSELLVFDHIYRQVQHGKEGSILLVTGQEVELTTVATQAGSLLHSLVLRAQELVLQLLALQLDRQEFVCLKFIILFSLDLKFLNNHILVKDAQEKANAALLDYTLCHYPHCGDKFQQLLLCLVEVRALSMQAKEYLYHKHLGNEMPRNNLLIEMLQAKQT

[4] = Luminescence Cell-Based Dose Retest to Confirm Inhibitors of Cancer Stem Cells. [Related pubchem assays (depositor defined):AID2717, AID2721]; assay type: functional; conditions: Homo sapiens
[5] = biological target: Melanocortin receptor 4 (Homo sapiens, UniProt P32245); assay type: functional, cell-based;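 further: Cell-based assay with luminescence read-out, confirmatory dose-response testing for agonist activity of biased ligands at MC4R; human U2OS cells with tagged receptor and beta-arrestin; potency of agonists that increase receptor coupling to beta-arrestin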
Chain of Melanocortin receptor 4 (P32245 whole entry): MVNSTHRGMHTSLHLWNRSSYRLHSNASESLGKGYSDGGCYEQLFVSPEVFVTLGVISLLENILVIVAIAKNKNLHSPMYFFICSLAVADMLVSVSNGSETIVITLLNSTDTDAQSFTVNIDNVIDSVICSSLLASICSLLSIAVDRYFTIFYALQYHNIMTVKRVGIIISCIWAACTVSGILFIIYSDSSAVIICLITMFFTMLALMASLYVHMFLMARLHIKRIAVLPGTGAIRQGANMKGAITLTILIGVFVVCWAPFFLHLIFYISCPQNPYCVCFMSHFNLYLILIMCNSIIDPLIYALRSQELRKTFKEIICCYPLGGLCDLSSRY

[6] = NIH3T3 cell viability loss – ATP luminescence, mouse fibroblasts, counter-screen, dose response (AID 2010); assay type: functional, cell-based;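 further: cells exposed to compound for about 90 hours before reading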
[7] = Trypanosoma cruzi growth suppression in host cells – NIH3T3 host cells, beta-gal luminescence, confirmation (AID 2044); assay type: functional, cell-based;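 further: intracellular parasites grown in NIH/3T3 mouse fibroblasts as host cells; luminescent beta-galactosidase reporter signal from transgenic T. cruzi replicating inside host cells; inhibitors lower the luminescence signal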
[8] = biological target: T1, DNA repair protein RAD52 homolog (Homo sapiens, UniProt P43351); assay type: functional, biochemical
T1 sequence (P43351 whole entry): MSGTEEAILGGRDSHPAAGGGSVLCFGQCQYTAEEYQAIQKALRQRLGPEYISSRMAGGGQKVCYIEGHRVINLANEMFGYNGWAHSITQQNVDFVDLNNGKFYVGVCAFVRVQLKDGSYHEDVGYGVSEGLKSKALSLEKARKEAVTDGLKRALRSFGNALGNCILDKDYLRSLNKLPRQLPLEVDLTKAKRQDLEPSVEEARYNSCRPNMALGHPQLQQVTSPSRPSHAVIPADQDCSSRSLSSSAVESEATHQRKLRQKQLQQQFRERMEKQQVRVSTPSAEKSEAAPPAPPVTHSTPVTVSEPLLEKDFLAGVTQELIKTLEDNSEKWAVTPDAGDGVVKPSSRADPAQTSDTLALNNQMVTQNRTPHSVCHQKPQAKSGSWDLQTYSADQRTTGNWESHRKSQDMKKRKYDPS

[9] = biological target: Photoreceptor-specific nuclear receptor (Homo sapiens, UniProt Q9Y5X4); assay type: functional, cell-based;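 further: CHO-S cells with Gal4-NCOR and VP16-NR2E3 two-hybrid luciferase reporter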
Chain of Photoreceptor-specific nuclear receptor (Q9Y5X4 whole entry, the tested form may be a part): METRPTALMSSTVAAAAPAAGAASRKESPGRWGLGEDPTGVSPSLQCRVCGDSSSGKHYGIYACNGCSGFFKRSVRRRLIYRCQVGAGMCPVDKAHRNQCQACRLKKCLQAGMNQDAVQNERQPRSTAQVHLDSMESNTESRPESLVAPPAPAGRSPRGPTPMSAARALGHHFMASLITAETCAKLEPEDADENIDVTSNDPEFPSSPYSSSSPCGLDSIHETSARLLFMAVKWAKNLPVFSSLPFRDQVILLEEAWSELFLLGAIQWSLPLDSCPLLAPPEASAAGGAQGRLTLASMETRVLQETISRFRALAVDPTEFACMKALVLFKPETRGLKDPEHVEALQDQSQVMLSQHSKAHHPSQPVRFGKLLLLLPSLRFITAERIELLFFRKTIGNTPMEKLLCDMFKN

[10] = biological target: T2, Apoptotic protease-activating factor 1 (Homo sapiens, UniProt O14727); assay type: functional
T2 sequence (O14727 whole entry): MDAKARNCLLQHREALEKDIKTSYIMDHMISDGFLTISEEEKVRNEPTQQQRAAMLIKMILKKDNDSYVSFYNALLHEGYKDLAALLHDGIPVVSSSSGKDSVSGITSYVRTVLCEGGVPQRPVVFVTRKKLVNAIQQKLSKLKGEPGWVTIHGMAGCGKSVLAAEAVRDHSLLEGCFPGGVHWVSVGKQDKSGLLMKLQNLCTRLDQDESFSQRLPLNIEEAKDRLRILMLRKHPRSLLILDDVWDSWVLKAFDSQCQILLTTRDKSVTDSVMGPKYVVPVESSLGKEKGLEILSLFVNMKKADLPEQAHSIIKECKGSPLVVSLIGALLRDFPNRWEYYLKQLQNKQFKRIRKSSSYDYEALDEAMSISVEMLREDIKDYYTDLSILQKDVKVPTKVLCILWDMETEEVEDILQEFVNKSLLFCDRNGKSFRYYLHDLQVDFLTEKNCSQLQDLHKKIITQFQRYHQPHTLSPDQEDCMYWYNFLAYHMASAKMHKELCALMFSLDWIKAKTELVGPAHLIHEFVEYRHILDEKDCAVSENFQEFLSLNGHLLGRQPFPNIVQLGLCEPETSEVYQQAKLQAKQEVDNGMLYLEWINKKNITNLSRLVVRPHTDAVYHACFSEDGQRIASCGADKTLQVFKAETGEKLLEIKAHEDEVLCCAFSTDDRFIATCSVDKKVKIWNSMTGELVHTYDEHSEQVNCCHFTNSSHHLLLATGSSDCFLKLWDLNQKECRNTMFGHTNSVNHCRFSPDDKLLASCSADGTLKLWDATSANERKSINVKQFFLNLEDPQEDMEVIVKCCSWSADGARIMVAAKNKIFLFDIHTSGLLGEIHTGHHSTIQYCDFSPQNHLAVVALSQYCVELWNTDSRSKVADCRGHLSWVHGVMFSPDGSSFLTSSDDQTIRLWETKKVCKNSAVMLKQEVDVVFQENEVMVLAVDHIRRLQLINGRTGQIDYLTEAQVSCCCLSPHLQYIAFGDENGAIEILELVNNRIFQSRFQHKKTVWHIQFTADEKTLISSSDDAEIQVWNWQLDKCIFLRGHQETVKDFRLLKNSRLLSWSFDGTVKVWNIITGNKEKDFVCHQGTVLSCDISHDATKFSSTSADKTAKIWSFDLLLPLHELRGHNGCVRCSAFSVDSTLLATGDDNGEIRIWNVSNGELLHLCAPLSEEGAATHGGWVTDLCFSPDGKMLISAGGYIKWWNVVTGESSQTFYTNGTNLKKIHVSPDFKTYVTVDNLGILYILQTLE

[11] = inhibition of ARNT PAS-B/TACC3 complex formation – biochemical, AlphaScreen, cherry-picked samples, confirmation (AID 651703); assay type: functional, Homo sapiens;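 further: His-tagged ARNT PAS-B domain paired with GST-TACC3 E629A dimer coactivator fragment; potency of inhibitors that break up the complex and lower AlphaScreen signal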
[12] = biological target: DNA repair and recombination protein RAD54-like (Homo sapiens, UniProt Q92698); assay: RAD54 Holliday junction migration blockers – biochemical, fluorescence, cherry-picked samples, dose series, confirmation (AID 651657); assay type: functional
Chain of DNA repair and recombination protein RAD54-like (Q92698 whole entry): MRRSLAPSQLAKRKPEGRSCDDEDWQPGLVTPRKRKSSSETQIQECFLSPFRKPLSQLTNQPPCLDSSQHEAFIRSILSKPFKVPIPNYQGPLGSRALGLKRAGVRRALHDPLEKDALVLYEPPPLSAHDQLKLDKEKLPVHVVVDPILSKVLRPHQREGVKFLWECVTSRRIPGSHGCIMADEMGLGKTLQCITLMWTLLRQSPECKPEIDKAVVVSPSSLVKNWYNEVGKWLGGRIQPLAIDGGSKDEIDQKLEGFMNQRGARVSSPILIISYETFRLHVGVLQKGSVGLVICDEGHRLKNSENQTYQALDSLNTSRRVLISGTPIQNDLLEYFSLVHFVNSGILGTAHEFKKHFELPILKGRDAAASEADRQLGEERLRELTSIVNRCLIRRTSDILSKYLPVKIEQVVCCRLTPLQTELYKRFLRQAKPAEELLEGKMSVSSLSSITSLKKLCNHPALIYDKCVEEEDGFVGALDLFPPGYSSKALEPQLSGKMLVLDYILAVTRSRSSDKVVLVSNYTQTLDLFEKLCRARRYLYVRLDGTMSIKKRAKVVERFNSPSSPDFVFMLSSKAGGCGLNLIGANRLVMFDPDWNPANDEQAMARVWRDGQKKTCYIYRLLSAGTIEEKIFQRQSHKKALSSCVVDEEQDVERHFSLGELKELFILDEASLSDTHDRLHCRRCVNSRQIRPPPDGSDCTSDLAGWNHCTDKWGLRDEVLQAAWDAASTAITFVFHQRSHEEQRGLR

[13] = reduced cellular PGC1a acetyl-lysine signal – cell-based, cherry-picked samples, dose response (AID 720514); assay type: functional;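 further: potency may reflect raised or lowered acetylation signal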
[14] = biological target: Hepatocyte nuclear factor 4-alpha (Homo sapiens, UniProt P41235); assay type: functional, cell-based;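 further: biochemical luminescence-based dose-response counterscreen measuring inhibition of HNF4 dimerization, run alongside a screen for blockers of ABHD5–perilipin-5 interaction; split luciferase complementation of HNF4 fusion proteins in cell lysate measuring dimerization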
Chain of Hepatocyte nuclear factor 4-alpha (P41235 whole entry, the tested form may be a part): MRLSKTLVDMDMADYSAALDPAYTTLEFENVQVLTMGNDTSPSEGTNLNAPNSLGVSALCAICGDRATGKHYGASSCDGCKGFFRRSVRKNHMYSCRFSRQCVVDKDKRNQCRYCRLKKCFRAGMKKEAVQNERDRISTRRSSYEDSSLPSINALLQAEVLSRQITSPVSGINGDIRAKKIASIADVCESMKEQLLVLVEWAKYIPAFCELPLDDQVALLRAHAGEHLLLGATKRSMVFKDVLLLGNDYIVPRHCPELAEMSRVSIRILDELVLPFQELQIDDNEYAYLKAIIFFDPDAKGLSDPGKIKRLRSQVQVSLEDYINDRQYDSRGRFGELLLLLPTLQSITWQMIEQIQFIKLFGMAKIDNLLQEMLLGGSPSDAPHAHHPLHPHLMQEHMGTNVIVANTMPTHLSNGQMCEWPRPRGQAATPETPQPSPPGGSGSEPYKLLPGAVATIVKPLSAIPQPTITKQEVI

[15] = Fluorescence-based cell-based high throughput dose response assay for inhibitors of the interaction of nucleotide-binding oligomerization domain containing 2 (NOD2) and the receptor-interacting serine-threonine kinase 2 (RIPK2).; assay type: functional; conditions: Homo sapiens
[16] = biological target: Paired box protein Pax-8 (Homo sapiens, UniProt Q06710); assay: PAX8 transcriptional activity inhibition in RMG-I – RMG-I cells, luciferase, cherry-pick, dose response (AID 687027); assay type: functional, cell-based;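 further: luciferase reporter driven by Pax8 target thyroperoxidase promoter measured by SteadyGlo luminescence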
Chain of Paired box protein Pax-8 (Q06710 whole entry): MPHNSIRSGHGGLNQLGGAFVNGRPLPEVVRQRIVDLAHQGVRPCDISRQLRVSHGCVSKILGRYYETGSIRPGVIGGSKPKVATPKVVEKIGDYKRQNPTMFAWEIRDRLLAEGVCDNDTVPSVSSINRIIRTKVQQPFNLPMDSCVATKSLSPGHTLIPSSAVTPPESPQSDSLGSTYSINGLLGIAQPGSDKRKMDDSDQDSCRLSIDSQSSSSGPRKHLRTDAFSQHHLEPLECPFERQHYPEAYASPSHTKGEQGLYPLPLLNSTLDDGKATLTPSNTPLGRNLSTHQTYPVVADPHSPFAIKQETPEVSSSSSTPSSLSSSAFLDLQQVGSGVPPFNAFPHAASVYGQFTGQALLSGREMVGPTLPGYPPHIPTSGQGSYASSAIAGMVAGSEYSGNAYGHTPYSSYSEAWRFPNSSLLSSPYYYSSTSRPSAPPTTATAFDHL

[17] = system: HEK293; assay: EBV LMP1 TES2 canonical NF-kB signalling blockers – cell-based, HEK293, luciferase, cherry-pick, dose response (AID 588343); assay type: functional; conditions: Homo sapiens

Chain of Nuclear receptor subfamily 5 group A member 2 (O00482 whole entry): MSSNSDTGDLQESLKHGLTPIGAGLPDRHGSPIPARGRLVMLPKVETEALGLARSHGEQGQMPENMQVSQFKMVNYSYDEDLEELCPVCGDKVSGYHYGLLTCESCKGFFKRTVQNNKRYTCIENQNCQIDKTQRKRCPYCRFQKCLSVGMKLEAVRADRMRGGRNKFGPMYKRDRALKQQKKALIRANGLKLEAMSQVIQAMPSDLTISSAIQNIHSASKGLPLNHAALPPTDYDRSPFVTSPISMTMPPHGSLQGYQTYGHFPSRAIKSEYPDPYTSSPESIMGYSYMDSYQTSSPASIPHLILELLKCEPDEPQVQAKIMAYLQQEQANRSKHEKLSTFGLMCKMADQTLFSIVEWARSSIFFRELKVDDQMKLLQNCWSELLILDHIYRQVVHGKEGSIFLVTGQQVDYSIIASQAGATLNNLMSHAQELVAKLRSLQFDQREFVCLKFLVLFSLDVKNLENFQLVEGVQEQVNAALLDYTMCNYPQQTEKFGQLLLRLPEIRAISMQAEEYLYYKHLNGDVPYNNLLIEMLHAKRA

In the case of `O=C(COC(=O)c1ccc(=O)n(Cc2ccccc2)n1)Nc1ccc2c(c1)OCCO2`, the IC50 [1] is reported as 35.9 µM (inactive), the IC50 [2] is reported as 35.9 µM (inactive) and the IC50 [3] is reported as 35.9 µM (inactive).
In the case of `CC12CCC3C(CC=C4CC(O)CCC43C)C1C/C(=C\c1ccccc1F)C2=O` (stereo not given), the AC50 [4] is reported as 2.76 µM (active) and the EC50 [5] is reported as > 89.2 µM (inactive).
With `Cc1ccc2sc(N(CCCN(C)C)C(=O)CN3C(=O)c4ccccc4C3=O)nc2c1C` the EC50 [6] was > 60 µM (not active), the EC50 [5] was > 89.2 µM (inactive) and the EC50 [7] was 225 nM (active). The AC50 [8] was 13.8 µM (active).
For `COCc1nnc(NC(=O)c2ccc(S(=O)(=O)N(CC(C)C)CC(C)C)cc2)o1`, the IC50 [9] was 8.81 µM (active).
In the case of `C=CC[n+]1c(-c2ccc(Cl)cc2Cl)csc1Nc1ccc(NC(C)=O)cc1`, the IC50 [9] is reported as 2.75 µM (active).
With `C=CCN1C=C2C(=O)C(C)(OC(=O)CCC(=O)OC)C(=O)C=C2C=C1C1CC1` (stereo not given) the IC50 [10] was 39.3 µM (active).
With `COc1ccc2c(c1)Cc1sc(NC(=O)c3ccco3)nc1-2` the IC50 [10] was 45.8 µM (active).
For `O=C(O)CSc1cccc2cccnc12`, the AC50 [11] was 74.5 µM (active).
In the case of `CN1CCN(c2nc(-c3ccccn3)nc3ccccc23)CC1`, the AC50 [12] is reported as 53.8 µM (active).
In the case of `C#CCN(C[C@@H]1[C@@H](OC(=O)NCc2ccccc2F)[C@@H](OC(=O)NCc2ccccc2F)Cn2c(=O)ccc(=O)n21)S(=O)(=O)c1ccc(C)cc1`, the AC50 [13] is reported as 2.58 µM (active), the IC50 [14] is reported as 8.93 µM (active) and the IC50 [15] is reported as 9.77 µM (active). For the same molecule, the AC50 [16] was 5.52 µM (active) and the AC50 [17] was 7.17 µM (active).
